Data: paper PMC3608651, “A Broad Profile of Co-Dominant Epitopes Shapes the Peripheral Mycobacterium tuberculosis Specific CD8+ T-Cell Immune Response in South African Patients with Active Tuberculosis” (PLoS ONE, 2013)
Like-named read-outs stand apart in the source and are kept apart here.

Tests used:
Format in all cases: binding
HLA-A*02:01 = HLA-A*02:01 (Homo sapiens, UniProt P04439, D140Y/D185E/D98H/E176V/E277Q/G131W/G231S/I119V/I121R/I166T/I218V/L300P/L318F/N151K/N90K/P208A/P217A/Q86G/Q94H/R138H/R169H/T345S)
HLA-A*24:02 = HLA-A*24:02 (Homo sapiens, UniProt P04439, D101N/D140Y/D185E/E176V/E190D/F33S/G103R/G107R/I119L/I121M/I306V/K335N/L105A/L180Q/L300P/N151K/N90K/Q86E/Q94H/R106L/R138H/R89G/T104I/T345S/V100E/W191G/Y123F)
HLA-A*30:01 = HLA-A*30:01 (Homo sapiens, UniProt P04439, D140H/D185E/E176W/F33S/G80R/H175R/K168Q/R138E/R41S); settings: percent relative the binding of positive control peptide […]; duplicated experiments; positive binder >40%
HLA-A*30:02 = HLA-A*30:02 (Homo sapiens, UniProt P04439, D101N/D140H/D185E/E176R/F33S/G80R/H175R/K168Q/Q94H/R138E/R41S/V100E); settings: percent relative the binding of positive control peptide […]; duplicated experiments; positive binder >40%
HLA-A*68:01 = HLA-A*68:01 (Homo sapiens, UniProt P04439, A269V/D185E/E176V/E277Q/E87N/F33Y/G231S/I121M/I166T/I218V/L180W/L300P/L318F/N151K/P208A/P217A/Q86R/R169H/T345S); settings: percent relative the binding of positive control peptide […]; duplicated experiments; positive binder >40%
HLA-B*07:02 = HLA-B*07:02 (Homo sapiens, UniProt P01889); settings: percent relative the binding of positive control peptide […]; duplicated experiments; positive binder >40%
HLA-B*58:01 = HLA-B*58:01 (Homo sapiens, UniProt P01889, A329T/C349S/D201E/D98Y/E176V/E187L/E204Q/E69T/G107R/I218V/I90N/K202T/L105A/L119I/N104I/N87E/Q89R/Q94S/R106L/R155S/R180L/R86G/S101N/S121R/S35A/S48A/T118I/V127L/V306I/V36M/Y140S/Y91M); settings: percent relative the binding of positive control peptide […]; duplicated experiments; positive binder >40%
HLA-C*07:01 = HLA-C*07:01 (Homo sapiens, UniProt P10321, K90N/S123Y); settings: percent relative the binding of positive control peptide […]; duplicated experiments; positive binder >40%
[1] = percent relative the binding of positive control peptide […], plate-bound monomer 0.5 µg/ml, duplicated experiments, positive binder >40%
[2] = percent relative the binding of positive control peptide […], duplicated experiments, positive binder >40%

Substance | Bind A*02:01 (HLA-A*02:01; [1]) [%] | Bind A*24:02 (HLA-A*24:02; [2]) [%] | Bind A*30:01 (HLA-A*30:01) [%] | Bind A*30:02 (HLA-A*30:02) [%] | Bind A*68:01 (HLA-A*68:01) [%] | Bind B*07:02 (HLA-B*07:02) [%] | Bind B*58:01 (HLA-B*58:01) [%] | Bind C*07:01 (HLA-C*07:01) [%] | Bind A*24:02 (HLA-A*24:02) | Bind A*02:01 (HLA-A*02:01)
ELPQW LSAN | 15 | 56 | 20 | 0 | 31 | 16 | 0 | 0 |  | 
MGPSLIGLA | 68 | 0 | 15 | 0 | 0 | 5 | 41 | 14 |  | 
WVYCGNGTP | 11 | 0 | 0 | 0 | 55 | 2 | 4 | 16 |  | 
DGLRAQDDY | 0 | 0 | 2 | 58 | 4 | 1 | 0 | 0 |  | 
GMGPSLIGL | 84 | 53 | 16 | 46 | 0 | 5 | 9 | 35 |  | 
QSGLSIVMP | 30 | 0 | 34 | 0 | 0 | 0 | 0 | 43 |  | 
DINTPAFEW | 0 | 56 | 7 | 0 | 3 | 9 | 58 | 10 |  | 
W YYQ SG LSI | 37 | 143 | 18 | 0 | 0 | 6 | 0 | 13 |  | 
LTSELPQW L | 56 | 9 | 0 | 19 | 0 | 7 | 34 | 2 |  | 
THSWEYWGA | 21 | 0 | 0 | 67 | 57 | 2 | 0 | 6 |  | 
FLENFVRSS | 77 | 5 | 0 | 0 | 7 | 0 | 0 | 5 |  | 
SAAIGLSMA | 67 | 0 | 0 | 0 | 0 | 31 | 5 | 0 |  | 
SALLDPSQG | 0 | 0 | 12 | 62 | 0 | 3 | 8 | 9 |  | 
LLDGLRAQD | 63 | 0 | 8 | 140 | 16 | 0 | 0 | 0 |  | 
GTPNELGGA | 49 | 0 | 0 | 0 | 0 | 0 | 0 | 0 |  | 
AEFLENFVR | 12 | 1 | 0 | 0 | 63 | 0 | 10 | 13 |  | 
AVKPTGSAA | 10 |  | 0 | 7 | 0 | 82 | 0 | 0 | 0 | 

Substance | Bind A*02:01 (HLA-A*02:01; [1]) [%] | Bind A*24:02 (HLA-A*24:02; [2]) [%] | Bind A*30:01 (HLA-A*30:01) [%] | Bind A*30:02 (HLA-A*30:02) [%] | Bind A*68:01 (HLA-A*68:01) [%] | Bind B*07:02 (HLA-B*07:02) [%] | Bind B*58:01 (HLA-B*58:01) [%] | Bind C*07:01 (HLA-C*07:01) [%] | Bind A*24:02 (HLA-A*24:02) | Bind A*02:01 (HLA-A*02:01)
DAYNAAGGH | 4 | 14 | 8 | 18 | 64 | 12 | 29 | 16 |  | 
NFPPNGTHS | 14 | 0 | 11 | 43 | 0 | 0 | 26 | 0 |  | 
GLSMAGSSA | 75 | 0 | 0 | 0 | 0 | 31 | 0 | 0 |  | 
YLLDGLRAQ | 111 | 0 | 0 | 10 | 15 | 0 | 0 | 0 |  | 
MW GPSSDPA | 6 | 24 | 0 | 74 | 7 | 3 | 0 | 0 |  | 
NGW DINTPA | 87 | 36 | 8 | 0 | 4 | 21 | 0 | 14 |  | 
PVGGQSSFY | 0 | 0 | 0 | 82 | 0 | 0 | 0 | 0 |  | 
RLWVYCGNG | 45 | 0 | 0 | 65 | 12 | 2 | 8 | 9 |  | 
SSNLKFQDA | 32 | 12 | 0 | 64 | 14 | 0 | 9 | 10 |  | 
QQFIYAGSL | 42 | 0 | 0 | 80 | 0 | 0 | 8 | 27 |  | 
KPTGSAAIG | 0 | 0 | 0 | 0 | 0 | 51 | 0 | 0 |  | 
PSQGMGPSL | 39 | 56 | 21 | 16 | 0 | 8 | 0 | 29 |  | 
ALLDPSQGM | 60 | 0 | 5 | 86 | 0 | 17 | 1 | 22 |  | 
AMILAAYHP |  | 0 | 0 | 33 | 0 | 1 | 64 | 1 |  | 34
GGANIPAEF | 4 | 0 | 0 | 70 | 0 | 0 | 57 | 5 |  | 
SGLSIVMPV | 95 | 0 | 0 | 38 | 0 | 0 | 0 | 0 |  | 
